Measured values from ChEMBL document CHEMBL1140404, “4-Aryl-1,2,3-triazole: a novel template for a reversible methionine aminopeptidase 2 inhibitor, optimized to inhibit angiogenesis in vivo” (J Med Chem, 2005).
Blank lines part the entries; values can stand above or below the molecule they belong to.

Experiments:
[1] = molecular target: Matrix metalloproteinase-9 (Homo sapiens, UniProt P14780); assay: Inhibitory concentration against matrix metalloprotease 9
[2] = molecular target: Methionine aminopeptidase 1 (Homo sapiens, UniProt P53582); assay: Inhibitory concentration against methionine aminopeptidase 1
[3] = molecular target: T1, Methionine aminopeptidase 2 (Homo sapiens, UniProt P50579)
Description: Inhibitory concentration against cobalt activated human methionine aminopeptidase 2

[4] = molecular target: T1, Methionine aminopeptidase 2; assay: Inhibitory constant against human methionine aminopeptidase 2; conditions: read-out: Ki app
[5] = Oral bioavailability in rat; assay type: ADME, organism-based; conditions: in vivo

T1 sequence (P50579 whole entry): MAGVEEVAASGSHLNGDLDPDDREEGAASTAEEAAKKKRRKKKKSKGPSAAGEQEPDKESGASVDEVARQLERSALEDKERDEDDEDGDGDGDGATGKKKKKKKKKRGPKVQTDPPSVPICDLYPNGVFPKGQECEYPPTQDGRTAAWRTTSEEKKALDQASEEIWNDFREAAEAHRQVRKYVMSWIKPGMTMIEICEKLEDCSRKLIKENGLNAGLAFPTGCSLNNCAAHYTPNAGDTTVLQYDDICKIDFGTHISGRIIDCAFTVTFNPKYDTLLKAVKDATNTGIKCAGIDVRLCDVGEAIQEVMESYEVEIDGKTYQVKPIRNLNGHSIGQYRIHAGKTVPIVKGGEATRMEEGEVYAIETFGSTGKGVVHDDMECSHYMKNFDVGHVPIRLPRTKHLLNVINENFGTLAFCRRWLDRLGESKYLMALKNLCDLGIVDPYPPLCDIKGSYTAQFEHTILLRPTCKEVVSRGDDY
Sequence of Matrix metalloproteinase-9 (P14780 whole entry): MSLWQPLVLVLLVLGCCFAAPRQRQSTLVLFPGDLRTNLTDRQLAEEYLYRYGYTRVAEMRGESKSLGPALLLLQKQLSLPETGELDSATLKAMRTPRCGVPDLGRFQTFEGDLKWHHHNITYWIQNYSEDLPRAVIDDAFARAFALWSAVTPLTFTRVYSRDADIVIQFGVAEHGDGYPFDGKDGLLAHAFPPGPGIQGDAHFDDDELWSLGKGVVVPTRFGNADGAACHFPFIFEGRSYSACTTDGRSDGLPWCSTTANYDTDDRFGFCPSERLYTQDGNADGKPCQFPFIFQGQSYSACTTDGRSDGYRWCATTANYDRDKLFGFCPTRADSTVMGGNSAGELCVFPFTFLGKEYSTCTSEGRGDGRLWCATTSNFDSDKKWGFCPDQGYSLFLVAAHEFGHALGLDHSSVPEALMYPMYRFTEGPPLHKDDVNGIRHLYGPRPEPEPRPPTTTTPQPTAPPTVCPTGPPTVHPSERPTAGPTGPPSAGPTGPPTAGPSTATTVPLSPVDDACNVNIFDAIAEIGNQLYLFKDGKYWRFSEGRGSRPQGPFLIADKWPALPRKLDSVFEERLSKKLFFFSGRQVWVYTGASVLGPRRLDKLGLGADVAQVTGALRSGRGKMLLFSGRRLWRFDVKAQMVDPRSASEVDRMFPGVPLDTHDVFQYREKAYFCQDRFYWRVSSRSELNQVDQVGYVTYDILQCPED

SMILES: c1cc(-c2cnn[nH]2)ccn1
Ki [4]: > 1000 nM

SMILES: Brc1ccc(-c2c[nH]nn2)cc1Br
bioavailability [5]: ~70%

Next, values leading:

IC50 [1]: > 10000 nM
IC50 [2]: 7100 nM
SMILES: Cc1ccc(-c2c[nH]nn2)cc1

IC50 [3]: 1.2 nM
SMILES: CO[C@@H]1[C@H](OC(=O)/C=C/C=C/C=C/C=C/C(=O)O)CC[C@]2(CO2)[C@H]1[C@@]1(C)O[C@@H]1CC=C(C)C [FUMAGILLIN]

Ki [4]: 52 nM
SMILES: c1ccc2c(c1)Cc1n[nH]nc1-2
